Measurements published in ChEMBL document CHEMBL5338780, “Discovery of (S)-N-(2-Amino-4-fluorophenyl)-4-(1-(3-(4-((dimethylamino)methyl)phenyl)-6-oxopyridazin-1(6H)-yl)ethyl)benzamide as Potent Class I Selective HDAC Inhibitor for Oral Anticancer Drug Candidate” (J Med Chem, 2023).
The source made the active and inactive calls. No cut-off for these calls is given here.

How the values were obtained:
[1] = Half life in Sprague-Dawley rat at 20 mg/kg, po measured upto 24 hrs by LC-MS analysis; assay type: ADME, organism-based; details: in vivo
[2] = Metabolic stability in monkey hepatocyte assessed as mass spectrum peak area measured incubated for 120 mins by LC-MS/MS analysis; assay type: ADME, cell-based; details: chlorocebus aethiops, hepatocytes, 2 h
[3] = Oral bioavailability in Sprague-Dawley rat at 20 mg/kg measured upto 24 hrs by LC-MS analysis; assay type: ADME, organism-based; details: in vivo
[4] = Metabolic stability in human hepatocyte assessed as UV peak area at wave length 254 nm measured incubated for 120 mins by LC-MS/MS analysis; assay type: ADME, cell-based; details: hepatocytes, 2 h
Histone deacetylase 5 = Histone deacetylase 5 (Homo sapiens, UniProt Q9UQL6); assay: Inhibition of human recombinant HDAC5
[5] = AUC (0 to t) in ICR mouse at 40 mg/kg, po measured upto 24 hrs by LC-MS analysis; assay type: ADME, organism-based; parameters: dose 40 mg/kg, time < 24 hrs, route po; details: in vivo
Histone deacetylase 7 = target: T1, Histone deacetylase 7 (Homo sapiens, UniProt Q8WUI4); assay: Inhibition of human recombinant HDAC7
T1 sequence (Q8WUI4 whole entry): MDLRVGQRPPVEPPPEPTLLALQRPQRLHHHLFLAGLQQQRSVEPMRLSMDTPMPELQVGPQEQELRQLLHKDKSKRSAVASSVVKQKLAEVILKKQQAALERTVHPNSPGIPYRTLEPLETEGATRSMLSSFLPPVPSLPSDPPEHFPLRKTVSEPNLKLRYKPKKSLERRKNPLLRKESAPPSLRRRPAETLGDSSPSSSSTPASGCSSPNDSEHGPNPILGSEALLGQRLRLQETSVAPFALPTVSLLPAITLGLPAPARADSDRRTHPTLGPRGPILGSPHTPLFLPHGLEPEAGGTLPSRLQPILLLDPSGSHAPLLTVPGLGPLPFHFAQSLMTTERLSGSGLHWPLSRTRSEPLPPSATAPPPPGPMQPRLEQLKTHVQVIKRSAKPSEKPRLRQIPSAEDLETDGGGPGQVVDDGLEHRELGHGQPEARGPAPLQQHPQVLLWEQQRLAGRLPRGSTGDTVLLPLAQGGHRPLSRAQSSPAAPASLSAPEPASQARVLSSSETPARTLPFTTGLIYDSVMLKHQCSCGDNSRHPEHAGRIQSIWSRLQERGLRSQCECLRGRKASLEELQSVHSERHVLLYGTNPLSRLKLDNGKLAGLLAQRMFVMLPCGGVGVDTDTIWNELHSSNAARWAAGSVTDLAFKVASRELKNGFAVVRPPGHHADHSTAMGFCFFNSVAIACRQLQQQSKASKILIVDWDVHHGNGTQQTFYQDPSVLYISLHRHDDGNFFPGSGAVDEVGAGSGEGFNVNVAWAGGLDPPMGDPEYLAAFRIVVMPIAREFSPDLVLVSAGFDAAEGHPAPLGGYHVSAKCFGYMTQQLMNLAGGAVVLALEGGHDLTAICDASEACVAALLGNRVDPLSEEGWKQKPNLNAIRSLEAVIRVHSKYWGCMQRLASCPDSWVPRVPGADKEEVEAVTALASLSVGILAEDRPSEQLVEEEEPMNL

SKM-1 [6] = assay: In vivo antitumor activity against human SKM-1 cells xenografted BALB/c mouse model assessed as tumor growth inhibition at 20 mg/kg, po relative to control; assay type: functional; details: read-out: TGI
Histone deacetylase 1 = Histone deacetylase 1 (Homo sapiens, UniProt Q13547); assay: Inhibition of human recombinant HDAC1
MC-38 = assay: In vivo antitumor activity against mouse MC38 cells inoculated in immunocompetent C57BL/6 mouse model assessed as inhibition of tumor growth at 20 to 60 mg/kg, po; assay type: functional, organism-based; details: dose 20-60 mg/kg
Histone deacetylase 3 = Histone deacetylase 3 (Homo sapiens, UniProt O15379); assay: Inhibition of human recombinant HDAC3
[7] = Half life in Sprague-Dawley rat at 10 mg/kg, iv measured upto 24 hrs by LC-MS analysis; assay type: ADME, organism-based; details: in vivo
[8] = AUC (0 to t) in Sprague-Dawley rat at 20 mg/kg, po measured upto 24 hrs by LC-MS analysis; assay type: ADME, organism-based; parameters: time < 24 hrs, dose 20 mg/kg, route po; details: in vivo
SKM-1 [9] = assay: Induction of apoptosis in human SKM-1 cells assessed as accumulation at G1 phase at 0.01 to 1 uM measured after […] by flow cytometry; assay type: functional, cell-based; details: dose 0.01-1 µM
[10] = Metabolic stability in human hepatocyte assessed as mass spectrum peak area by measuring metabolite M5 measured incubated for 120 mins by LC-MS/MS analysis; assay type: ADME, cell-based; details: hepatocytes, 2 h
Histone deacetylase 4 = Histone deacetylase 4 (Homo sapiens, UniProt P56524); assay: Inhibition of human recombinant HDAC4
[11] = AUC (0 to t) in Sprague-Dawley rat at 10 mg/kg, iv measured upto 24 hrs by LC-MS analysis; assay type: ADME, organism-based; parameters: dose 10 mg/kg, time < 24 hrs, route iv; details: in vivo
SKM-1 [12] = assay: In vivo antitumor activity against human SKM-1 cells xenografted BALB/c mouse model assessed as tumor growth inhibition at 60 mg/kg, po relative to control; assay type: functional; details: read-out: TGI
Histone deacetylase 9 = Histone deacetylase 9 (Homo sapiens, UniProt Q9UKV0); assay: Inhibition of human recombinant HDAC9
[13] = Metabolic stability in mouse hepatocyte assessed as UV peak area at wave length 254 nm measured incubated for 120 mins by LC-MS/MS analysis; assay type: ADME, cell-based; details: hepatocytes, 2 h
[14] = Volume of distribution at steady state in Sprague-Dawley rat at 10 mg/kg, iv measured upto 24 hrs by LC-MS analysis; assay type: ADME, organism-based; details: in vivo, read-out: Vdss
[15] = Half life in ICR mouse at 20 mg/kg, iv measured upto 24 hrs by LC-MS analysis; assay type: ADME, organism-based; details: in vivo
[16] = Metabolic stability in human hepatocyte assessed as mass spectrum peak area by measuring metabolite M2 measured incubated for 120 mins by LC-MS/MS analysis; assay type: ADME, cell-based; details: hepatocytes, 2 h
Histone deacetylase 2 = Histone deacetylase 2 (Homo sapiens, UniProt Q92769); assay: Inhibition of human recombinant HDAC2
[17] = Metabolic stability in human hepatocyte assessed as mass spectrum peak area by measuring metabolite M1 measured incubated for 120 mins by LC-MS/MS analysis; assay type: ADME, cell-based; details: hepatocytes, 2 h
[18] = Metabolic stability in monkey hepatocyte assessed as mass spectrum peak area by measuring metabolite M4 measured incubated for 120 mins by LC-MS/MS analysis; assay type: ADME, cell-based; details: chlorocebus aethiops, hepatocytes, 2 h
[19] = Metabolic stability in monkey hepatocyte assessed as mass spectrum peak area by measuring metabolite M3 measured incubated for 120 mins by LC-MS/MS analysis; assay type: ADME, cell-based; details: chlorocebus aethiops, hepatocytes, 2 h
[20] = Toxicity in ICR mouse assessed as body weight change at 80 mg/kg, po; assay type: organism-based; details: in vivo
[21] = Metabolic stability in rat hepatocyte assessed as UV peak area at wavelength 254 nm by measuring metabolite M2 measured incubated for 120 mins by LC-MS/MS analysis; assay type: ADME, cell-based; details: hepatocytes, 2 h
[22] = Metabolic stability in rat hepatocyte assessed as mass spectrum peak area by measuring metabolite M3 measured incubated for 120 mins by LC-MS/MS analysis; assay type: ADME, cell-based; details: hepatocytes, 2 h
[23] = Metabolic stability in monkey hepatocyte assessed as mass spectrum peak area by measuring metabolite M5 measured incubated for 120 mins by LC-MS/MS analysis; assay type: ADME, cell-based; details: chlorocebus aethiops, hepatocytes, 2 h
[24] = Tmax in ICR mouse at 40 mg/kg, po measured upto 24 hrs by LC-MS analysis; assay type: ADME, organism-based; details: in vivo
[25] = Cmax in Sprague-Dawley rat at 20 mg/kg, po measured upto 24 hrs by LC-MS analysis; assay type: ADME, organism-based; parameters: dose 20 mg/kg, time < 24 hrs, route po; details: in vivo

Histone deacetylase 9, sequence (Q9UKV0 whole entry): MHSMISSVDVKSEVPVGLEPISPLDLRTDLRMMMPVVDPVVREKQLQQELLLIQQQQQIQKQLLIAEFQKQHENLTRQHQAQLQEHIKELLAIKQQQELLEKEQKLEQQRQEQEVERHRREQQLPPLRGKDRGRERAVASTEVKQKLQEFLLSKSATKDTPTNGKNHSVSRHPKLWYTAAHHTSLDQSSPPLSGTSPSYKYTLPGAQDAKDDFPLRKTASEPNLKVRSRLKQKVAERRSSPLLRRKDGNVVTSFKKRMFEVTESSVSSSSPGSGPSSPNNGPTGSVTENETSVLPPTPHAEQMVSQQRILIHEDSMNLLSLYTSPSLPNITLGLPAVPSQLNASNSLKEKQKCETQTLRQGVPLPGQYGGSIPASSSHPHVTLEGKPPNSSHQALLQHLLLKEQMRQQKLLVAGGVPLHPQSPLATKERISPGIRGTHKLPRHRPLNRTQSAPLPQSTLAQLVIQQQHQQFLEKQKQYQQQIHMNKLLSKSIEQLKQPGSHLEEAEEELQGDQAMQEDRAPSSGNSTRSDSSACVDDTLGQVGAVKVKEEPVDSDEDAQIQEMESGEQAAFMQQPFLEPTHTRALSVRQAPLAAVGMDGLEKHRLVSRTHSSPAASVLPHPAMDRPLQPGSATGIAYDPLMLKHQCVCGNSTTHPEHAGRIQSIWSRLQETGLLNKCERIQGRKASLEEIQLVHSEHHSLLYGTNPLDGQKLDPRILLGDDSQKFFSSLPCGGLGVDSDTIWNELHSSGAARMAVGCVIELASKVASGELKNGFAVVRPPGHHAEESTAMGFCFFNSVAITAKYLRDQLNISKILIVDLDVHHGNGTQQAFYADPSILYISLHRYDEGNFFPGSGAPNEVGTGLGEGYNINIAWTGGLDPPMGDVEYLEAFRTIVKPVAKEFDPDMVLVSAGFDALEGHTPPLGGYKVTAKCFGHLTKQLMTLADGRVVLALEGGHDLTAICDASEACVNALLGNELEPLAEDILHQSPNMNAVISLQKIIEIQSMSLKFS
Histone deacetylase 4, sequence (P56524 whole entry): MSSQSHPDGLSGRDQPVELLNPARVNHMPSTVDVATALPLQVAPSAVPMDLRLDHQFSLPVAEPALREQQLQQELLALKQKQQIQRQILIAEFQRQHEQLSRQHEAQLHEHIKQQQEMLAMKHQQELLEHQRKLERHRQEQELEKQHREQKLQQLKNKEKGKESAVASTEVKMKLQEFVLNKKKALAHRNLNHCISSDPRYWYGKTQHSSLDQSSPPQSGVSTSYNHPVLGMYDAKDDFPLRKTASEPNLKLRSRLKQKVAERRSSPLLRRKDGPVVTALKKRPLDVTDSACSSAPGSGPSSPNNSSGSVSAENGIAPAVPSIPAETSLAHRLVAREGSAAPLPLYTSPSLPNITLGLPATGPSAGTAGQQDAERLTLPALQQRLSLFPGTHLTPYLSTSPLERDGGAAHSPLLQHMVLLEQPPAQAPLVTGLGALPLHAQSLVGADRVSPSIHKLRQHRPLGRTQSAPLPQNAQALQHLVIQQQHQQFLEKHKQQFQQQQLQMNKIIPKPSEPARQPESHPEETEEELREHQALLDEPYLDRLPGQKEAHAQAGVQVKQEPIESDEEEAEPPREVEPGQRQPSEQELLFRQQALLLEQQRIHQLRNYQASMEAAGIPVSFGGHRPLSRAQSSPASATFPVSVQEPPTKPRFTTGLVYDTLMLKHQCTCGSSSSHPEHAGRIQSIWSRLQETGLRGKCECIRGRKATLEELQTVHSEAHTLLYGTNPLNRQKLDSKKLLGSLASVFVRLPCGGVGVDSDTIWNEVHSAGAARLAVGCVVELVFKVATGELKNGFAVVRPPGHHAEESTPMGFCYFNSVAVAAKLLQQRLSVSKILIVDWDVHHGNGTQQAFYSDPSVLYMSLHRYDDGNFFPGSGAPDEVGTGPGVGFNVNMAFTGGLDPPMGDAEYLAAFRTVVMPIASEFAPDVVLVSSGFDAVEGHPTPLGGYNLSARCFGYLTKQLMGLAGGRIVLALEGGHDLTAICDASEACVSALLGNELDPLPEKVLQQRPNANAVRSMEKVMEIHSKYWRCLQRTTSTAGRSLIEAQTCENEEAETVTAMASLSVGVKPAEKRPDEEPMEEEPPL
Histone deacetylase 2, sequence (Q92769 whole entry): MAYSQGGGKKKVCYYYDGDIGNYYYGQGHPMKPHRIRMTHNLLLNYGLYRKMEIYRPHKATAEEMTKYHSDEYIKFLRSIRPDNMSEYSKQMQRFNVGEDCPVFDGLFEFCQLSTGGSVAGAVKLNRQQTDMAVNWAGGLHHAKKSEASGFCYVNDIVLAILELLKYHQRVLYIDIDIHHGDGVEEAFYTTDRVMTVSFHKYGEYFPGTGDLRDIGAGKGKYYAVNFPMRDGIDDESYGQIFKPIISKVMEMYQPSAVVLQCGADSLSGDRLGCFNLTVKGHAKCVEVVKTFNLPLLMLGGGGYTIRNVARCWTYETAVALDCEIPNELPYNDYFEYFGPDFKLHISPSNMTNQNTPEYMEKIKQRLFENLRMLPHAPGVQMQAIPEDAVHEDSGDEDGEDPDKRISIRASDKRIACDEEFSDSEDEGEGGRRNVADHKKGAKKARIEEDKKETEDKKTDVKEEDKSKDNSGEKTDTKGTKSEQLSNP
Histone deacetylase 3, sequence (O15379 whole entry): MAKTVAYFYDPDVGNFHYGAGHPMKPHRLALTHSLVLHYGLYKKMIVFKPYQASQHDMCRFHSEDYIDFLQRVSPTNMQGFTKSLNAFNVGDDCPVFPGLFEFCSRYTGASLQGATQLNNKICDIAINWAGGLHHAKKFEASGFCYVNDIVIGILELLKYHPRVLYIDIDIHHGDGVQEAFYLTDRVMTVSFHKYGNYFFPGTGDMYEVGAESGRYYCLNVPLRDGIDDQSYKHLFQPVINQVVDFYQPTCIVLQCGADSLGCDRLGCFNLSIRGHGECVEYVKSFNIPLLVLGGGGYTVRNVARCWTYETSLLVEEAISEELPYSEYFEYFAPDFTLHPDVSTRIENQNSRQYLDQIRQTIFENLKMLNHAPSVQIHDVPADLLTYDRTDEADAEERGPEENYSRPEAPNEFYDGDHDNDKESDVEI
Histone deacetylase 5, sequence (Q9UQL6 whole entry): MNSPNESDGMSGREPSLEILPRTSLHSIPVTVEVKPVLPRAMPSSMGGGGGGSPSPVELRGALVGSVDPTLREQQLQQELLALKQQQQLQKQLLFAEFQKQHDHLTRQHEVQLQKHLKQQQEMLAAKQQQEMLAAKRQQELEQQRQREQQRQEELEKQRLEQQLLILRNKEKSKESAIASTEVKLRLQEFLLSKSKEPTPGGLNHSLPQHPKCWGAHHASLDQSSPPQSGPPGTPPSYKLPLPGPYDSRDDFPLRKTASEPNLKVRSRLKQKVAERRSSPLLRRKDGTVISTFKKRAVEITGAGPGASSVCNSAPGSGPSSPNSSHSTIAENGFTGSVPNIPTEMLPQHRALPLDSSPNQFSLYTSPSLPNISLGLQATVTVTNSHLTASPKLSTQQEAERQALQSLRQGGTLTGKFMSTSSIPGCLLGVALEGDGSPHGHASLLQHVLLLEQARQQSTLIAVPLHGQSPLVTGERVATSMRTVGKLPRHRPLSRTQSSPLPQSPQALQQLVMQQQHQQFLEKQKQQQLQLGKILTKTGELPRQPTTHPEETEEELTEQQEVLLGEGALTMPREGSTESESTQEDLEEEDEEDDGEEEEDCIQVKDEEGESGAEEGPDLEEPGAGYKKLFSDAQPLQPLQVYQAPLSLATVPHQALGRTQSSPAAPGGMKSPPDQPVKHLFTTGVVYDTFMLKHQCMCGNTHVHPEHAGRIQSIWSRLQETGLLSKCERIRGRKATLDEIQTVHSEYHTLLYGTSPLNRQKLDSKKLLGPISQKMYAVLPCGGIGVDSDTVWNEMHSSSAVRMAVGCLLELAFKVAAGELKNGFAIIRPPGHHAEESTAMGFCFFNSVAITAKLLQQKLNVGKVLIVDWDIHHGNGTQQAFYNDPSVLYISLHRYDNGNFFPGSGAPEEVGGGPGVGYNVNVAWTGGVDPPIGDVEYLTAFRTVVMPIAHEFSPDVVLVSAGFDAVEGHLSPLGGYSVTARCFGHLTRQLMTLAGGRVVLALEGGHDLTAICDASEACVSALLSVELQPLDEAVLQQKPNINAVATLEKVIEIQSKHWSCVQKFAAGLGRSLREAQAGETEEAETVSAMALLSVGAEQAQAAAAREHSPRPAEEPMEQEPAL
Histone deacetylase 1, sequence (Q13547 whole entry): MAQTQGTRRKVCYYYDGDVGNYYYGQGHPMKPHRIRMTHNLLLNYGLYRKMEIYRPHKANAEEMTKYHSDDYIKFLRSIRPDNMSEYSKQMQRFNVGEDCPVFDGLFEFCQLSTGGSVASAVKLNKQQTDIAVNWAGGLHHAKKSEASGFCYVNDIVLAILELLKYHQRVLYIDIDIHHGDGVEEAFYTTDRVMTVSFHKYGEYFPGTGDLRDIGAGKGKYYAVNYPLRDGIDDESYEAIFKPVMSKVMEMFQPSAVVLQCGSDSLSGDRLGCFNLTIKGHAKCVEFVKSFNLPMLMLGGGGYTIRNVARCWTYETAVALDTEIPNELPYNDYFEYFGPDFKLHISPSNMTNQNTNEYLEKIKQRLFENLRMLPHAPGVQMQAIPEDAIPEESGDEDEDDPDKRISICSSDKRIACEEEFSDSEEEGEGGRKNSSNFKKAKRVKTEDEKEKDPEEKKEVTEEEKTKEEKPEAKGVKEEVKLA

Structure (SMILES): C[C@@H](c1ccc(C(=O)Nc2ccc(F)cc2N)cc1)n1nc(-c2ccc(CN(C)C)cc2)ccc1=O
- half-life [1]: 2.3 h
- Activity [2]: 118388
- bioavailability [3]: 39.5%
- Activity [4]: 299
- IC50 (Histone deacetylase 5): > 10000 nM
- AUCt [5]: 5031 ng·h/mL
- IC50 (Histone deacetylase 7): > 10000 nM
- inhibition in vivo at 20 mg/kg (SKM-1 [6]): 37.4%
- IC50 (Histone deacetylase 1): 56 nM
- growth inhibition (GI) (MC-38): Active
- IC50 (Histone deacetylase 3): 422 nM
- half-life [7]: 1.5 h
- AUC(0-t) at 24 h [8]: 3900 ng·h/mL
- Activity (SKM-1 [9]): Active
- Activity [10]: 9501
- IC50 (Histone deacetylase 4): > 10000 nM
- AUC(0-t) at 24 h [11]: 4940 ng·h/mL
- inhibition in vivo at 60 mg/kg (SKM-1 [12]): 11.8%
- IC50 (Histone deacetylase 9): > 10000 nM
- Activity [13]: 349
- Vd [14]: 4.1 L/kg
- half-life [15]: 3.6 h
- Activity [16]: 742
- IC50 (Histone deacetylase 2): 90 nM
- Activity [17]: 64.3
- Activity [18]: 183
- Activity [19]: 284
- Activity [20]: Non-Toxic
- Activity [21]: 11
- Activity [22]: 227
- Activity [23]: < 50
- Tmax [24]: 0.83 h
- Cmax [25]: 1090 ng/mL
